Measurements: paper PMC8069832, “New Amides and Phosphoramidates Containing Selenium: Studies on Their Cytotoxicity and Antioxidant Activities in Breast Cancer” (Antioxidants, 2021)
Like-named read-outs stand apart in the source and are kept apart here.

Assays:
HTB-54 = test: cells; format: cell-based; settings: Homo sapiens; for CC50: HTB-54, 48 h, read-out: LC50 HTB54; for GI50 / IC (TGI): HTB-54, 48 h, average ± SEM; for GI50: read-out: GI50 HTB54; for IC (TGI): read-out: TGI HTB54
Protocol: (§1) Cell lines were provided by the European Collection of Cell Cultures (ECACC) or by the American Type Culture Collection (ATCC). Seven cell lines were used: MCF-7 (breast adenocarnicoma), 184B5 (nonmalignant, mammary gland derived), CCRF-CEM (lymphoblastic leukemia), HT-29 (colon carcinoma), HTB-54 (lung carcinoma), BEAS-2B (nonmalignant, derived from the bronchial epithelium) and PC-3 (prostate carcinoma). MCF-7, CCRF-CEM, HT-29, HTB-54, BEAS-2B and PC-3 cell lines were grown in RPMI medium (Gibco) supplemented with 10% fetal bovine serum (FBS; Gibco), 100 units/mL penicillin and […] streptomycin (Gibco). 184B5 cells were grown in DMEM/F12 medium supplemented with 5% FBS, 1 × ITS (Lonza), 100 nM hydrocortisone (Aldich), 2 mM sodium pyruvate (Lonza), 20 ng/mL EGF (Sigma-Aldrich), 0.3 nM trans-retinoic acid (Sigma-Aldrich), 100 units/mL penicillin and […] streptomycin. Cells were maintained at 37 °C and 5% CO2.
(§2) The cytotoxic effect of each substance was tested by the MTT method. Each compound was initially dissolved in DMSO at a concentration of 0.01 M, and serial dilutions were prepared with nonsupplemented medium. The cytotoxic effect of each compound was tested at 50 and 10 µM as a first screening. […]
(§3) A total of 1 × 10^4 cells/well in 96-well plates were treated with increasing concentrations of the corresponding compounds for 48 h at 37 °C in a humidified atmosphere containing 5% CO2. Then, cells were incubated with 50 µL of MTT (2 mg/mL stock) for 4 h. The medium was then removed by aspiration, and the formazan crystals were dissolved in […] of DMSO. […] Data were obtained from at least 3 independent experiments performed in quadruplicate. The standard error of the means (SEM) for the cytotoxic parameters was calculated applying the standard deviation formula to the mean values of each parameter for the three independent experiments performed.
(§4) . Cisplatin was used as a standard drug. […]. […] The presence of electron-withdrawing groups (-NO2, -CF3, -Cl) in the phenyl ring favored the cytotoxic activity in the amides, but in the phosphoramidates, the best results were obtained for aliphatic chains methoxy (II.1b, II.2b) and ethoxy (II.1d, II.2d). […].

PC-3 = test: cells; format: cell-based; settings: Homo sapiens; for LC50: PC-3, 48 h, read-out: LC50 PC-3; for GI50 / IC (TGI): PC-3, 48 h, average ± SEM; for GI50: read-out: GI50 PC-3; for IC (TGI): read-out: TGI PC-3
Protocol: as §1, §2, §3, §4

[1] = MTT cytotoxicity in nonmalignant mammary gland derived cells; format: cell-based; settings: human
Protocol: as §1, §2, §3, §4
(§5) The lack of selectivity toward cancerous cells is one of the major issues during the discovery and development of new anticancer agents. Therefore, we evaluated the cytotoxic activity of our compounds against two cell lines derived from nonmalignant breast tissue (184B5) and no malignant bronchial epithelium (BEAS-2B) (Table 2). […].

184B5 = test: as above; format: cell-based; settings: for GI50 / IC (TGI): Homo sapiens, 184B5, nonmalignant cells, 48 h; for GI50: read-out: GI50 184B5; for IC (TGI): read-out: TGI 184B5; for Selectivity index (SI) = GI50 (184B5)/GI50 (MCF-7): breast
Protocol: as §1, §2, §3, §4, §5

[2] = MTT cytotoxicity in nonmalignant bronchial epithelium cells; format: cell-based; settings: human
Protocol: as §1, §2, §3, §4, §5

BEAS-2B = test: as above; format: cell-based; settings: for GI50 / IC (TGI): Homo sapiens, BEAS-2B, nonmalignant cells, 48 h; for GI50: read-out: GI50 BEAS-2B; for IC (TGI): read-out: TGI BEAS-2B
Protocol: as §1, §2, §3, §4, §5

[3] = DPPH radical scavenging assay; settings: for DPPH radical scavenging activity: 0.003 mg/mL; for DPPH activity inhibition: 0.03 mg/mL, after 30 min
Protocol: The DPPH (1,1-diphenyl-2-picrylhydrazyl radical) assay measures the hydrogen donation ability of the antioxidant to convert the stable DPPH free radical into 1,1-diphenyl-2-(2,4,6-trinitrophenyl)-hydrazine. After radical reaction with the compounds, a decrease in the absorbance was detected at 517 nm, which is accompanied by a change of color from violet to light-yellow. The target compounds were dissolved in methanol to make 1 mg/mL stock solutions, which were diluted to five concentrations as test samples. Ascorbic acid was used as a standard, and the experiment was carried out on 96-well plates. The DPPH solution was prepared at a 100 µM concentration. For each test, 100 µL of DPPH solution was added to 100 µL of methanolic solution containing the tested derivatives, and the absorbance was determined at different time points. All the measurements were carried out in triplicate. Results were expressed as the percentage of the radical scavenged, calculated using the following formula:(1) % DPPH radical scavenging=Acontrol − Asample/Acontrol × 100 where Acontrol refers to the absorbance of the negative control, and Asample refers to the absorbance of the tested compounds. Results are expressed as a percentage of DPPH radical scavenged ± SEM.
. Ascorbic acid and Trolox were used as radical scavenger gold standards. […]. No correlation was found for either structure–radical scavenging activity or antitumor–radical scavenging activity, except for compound I.2f, one of the selected cytotoxic agents. To further confirm this antioxidant activity, three compounds (I.1e, I.1g and I.2i) were also evaluated as DPPH radical scavengers at a lower concentration of 0.003 mg/mL (Figure 3B).

MCF-7 [4] = test: cells; settings: Homo sapiens, MCF7, 48 h; for activity at 10 µM: read-out: Cell growth (%) MCF-7; for GI50: read-out: GI50 MCF-7, 48 h, average ± SEM; for CC50: read-out: LC50 MCF-7; for IC (TGI): read-out: TGI MCF-7
CCRF-CEM = test: cells; settings: Homo sapiens, 48 h; for activity at 10 µM: read-out: Cell growth (%) CCRF-CEM; for GI50: read-out: GI50 CCRF-CEM; for CC50: read-out: LC50 CCRF-CEM; for IC (TGI): read-out: TGI CCRF-CEM
HT-29 = test: cells; settings: Homo sapiens, HT-29, 48 h; for activity at 10 µM: read-out: Cell growth (%) HT-29; for GI50: read-out: GI50 HT-29; for CC50: read-out: LC50 HT-29; for IC (TGI): read-out: TGI HT-29
MCF-7 [5] = settings: read-out: GI50 MCF-7; 48 h, average ± SEM

Row | SMILES | CC50 (HTB-54) | GI50 (HTB-54) | IC (TGI) (HTB-54) | LC50 (PC-3) | GI50 (PC-3) | IC (TGI) (PC-3) | LC50 (50% lethal concentration) at 48 h [1] | GI50 (184B5) | IC (TGI) (184B5) | Selectivity index (SI) = GI50 (184B5)/GI50 (MCF-7) (184B5) | LC50 (50% lethal concentration) at 48 h [2] | GI50 (BEAS-2B) | IC (TGI) (BEAS-2B) | DPPH radical scavenging activity [3] | DPPH activity inhibition [3] | activity at 10 µM (MCF-7 [4]) | GI50 (MCF-7 [4]) | CC50 (MCF-7 [4]) | activity at 10 µM (CCRF-CEM) | activity at 10 µM (HT-29) | other results
1 | O=C(Nc1ccc([Se][Se]c2ccc(NC(=O)c3ccc([N+](=O)[O-])cc3)cc2)cc1)c1ccc([N+](=O)[O-])cc1 [I.1e] | 72.8 ± 1.4 µM | 16.9 ± 3.1 µM | 44.8 ± 2.3 µM | 64.9 ± 1.1 µM | 2.5 ± 0.2 µM | 28.5 ± 1.9 µM | 68.2 µM | 7.76 µM | 33.8 µM | 1.14 | 15.8 µM | 0.42 µM | 4.8 µM | some moderate effect was observed | greater than 35% | 45.2% | 7.4 ± 1 µM | 73.4 ± 0.1 µM | 35.4% | 49.2% | Selectivity index (SI) = GI50 (BEAS-2B)/GI50 (HTB-54) (BEAS-2B; lung): 0.02; IC (TGI) (MCF-7 [4]): 40.1 ± 0.1 µM; GI50 (CCRF-CEM): 6.5 ± 1.5 µM; CC50 (CCRF-CEM): 67 ± 2 µM; IC (TGI) (CCRF-CEM): 33.8 ± 2 µM; GI50 (HT-29): 16.8 ± 2.5 µM; CC50 (HT-29): 72.3 ± 1.8 µM; IC (TGI) (HT-29): 44.6 ± 3.1 µM
2 | Cc1ccc(C(=O)Nc2ccc([Se][Se]c3ccc(NC(=O)c4ccc(C)cc4)cc3)cc2)cc1 [I.1g] |  |  |  |  |  |  |  |  |  |  |  |  |  | some moderate effect was observed | greater than 35% | 57.5% |  |  | 105% | 109% | 
3 | CSc1ccc(C(=O)Nc2ccc([Se][Se]c3ccc(NC(=O)c4ccc(SC)cc4)cc3)cc2)cc1 [I.1n] |  |  |  |  |  |  |  |  |  |  |  |  |  |  | greater than 35% | 64% |  |  | 72.1% | 50.6% | 
4 | N#C[Se]c1ccc(NC(=O)c2ccc(Cl)cc2)cc1 [I.2b] | > 100 µM | > 100 µM | > 100 µM | > 100 µM | > 100 µM | > 100 µM | > 100 µM | 0.89 µM | > 100 µM | 1.53 | > 100 µM | > 100 µM | > 100 µM |  |  | 33.5% | < 1 µM | > 100 µM | 50.1% | 52.3% | GI50 (MCF-7 [5]): 0.5 ± 0.9 µM; IC (TGI) (MCF-7 [4]): 51.8 ± 2.5 µM; GI50 (CCRF-CEM): 8.7 ± 1.1 µM; CC50 (CCRF-CEM): > 100 µM; IC (TGI) (CCRF-CEM): > 100 µM; GI50 (HT-29): 16.5 ± 3.6 µM; CC50 (HT-29): > 100 µM; IC (TGI) (HT-29): > 100 µM
